Columns and labels:
[1] = Plasma paritaprevir concentration 7 d after start of OBV/PTV/r treatment (LC-MS/MS); assay type: in vivo, human; conditions: OBV/PTV/r 25/150/100 mg orally once daily; for Log10 Ctrough: fasting steady-state plasma trough, day 7, LC-MS/MS, mean ± SD; for AUC (AUC0-6 h): plasma, day 7, 0-6 h after dosing with breakfast, trapezoidal rule
Method: This was a single-center, exploratory, prospective study. The study was approved by both the ethical review board of Juntendo University Faculty of Medicine (Jundai-Irin No-2016135) and the Ethics Committee for Human Genome/Gene Analysis Research at Kanazawa University Graduate School of Medical Sciences (No. 2016–004, serial No. 432) and was carried out in accordance with the 1964 Declaration of Helsinki and its later amendments. The study was also registered with UMIN clinical trials as UMIN000022587. Written informed consent was obtained from all patients before enrollment. The study enrolled adult patients with HCV genotype 1b chronic hepatitis or compensated liver cirrhosis using OBV/PTV/r (VIEKIRAX®; AbbVie, Inc., North Chicago, Illinois, USA) at Juntendo University Nerima Hospital. Analysis of resistance-associated variations of the NS5A Y93H substitutions in the baseline sequence was performed in a commercial laboratory (SRL, Inc., Tokyo, Japan), and the patients with the mutant type of NS5A Y93H were excluded. Patients with renal dysfunction (estimated glomerular filtration rate < 40 ml/min/1.73 m^2) were excluded. A precaution in OBV/PTV/r treatment is coadministration of statin medications. Patients taking simvastatin and atorvastatin were excluded; no other patients were taking any other type of statin. Consequently, this study involved 27 consecutive Japanese patients (8 males and 19 females), with ages ranging from 30 to 83 years, treated between June 2016 and July 2017. Twenty patients with chronic hepatitis and seven patients with liver cirrhosis were included. All patients were treated with OBV/PTV/r, at a dose of 25/150/100 mg, administered orally once daily.
Fasting steady-state plasma trough concentrations (Ctrough) of paritaprevir were determined from blood samples obtained 7 d after the start of treatment. The patients were given the same breakfast of 338 kcal, with 15% of calories from protein, 60% from fat, and 25% from carbohydrates. After the meal, the patients took the drugs orally. Paritaprevir concentrations at 2, 4, and 6 h after dosing were determined. Blood samples were centrifuged within 30 min at 1,500 rpm for 10 min at 4°C, and plasma concentrations of paritaprevir were determined using liquid chromatography–tandem mass spectrometry, as described. The area under the plasma concentration curve from 0 to 6 h (AUC0–6 h) of paritaprevir after dosing was calculated using the trapezoidal rule.

[2] = regimen of paritaprevir/ritonavir, ombitasvir, and dasabuvir with or without ribavirin; mainly indirect bilirubin, without elevations in liver enzymes; cited from earlier work
Method: The regimen of ombitasvir, paritaprevir, and ritonavir (OBV/PTV/r) without or with ribavirin has been available in Japan since 2015 and 2016, respectively. Ritonavir is included for its booster effect on paritaprevir by cytochrome P450 3A inhibitor. Paritaprevir, a nonstructural (NS)3/4A protease inhibitor, is mainly eliminated via hepatobiliary excretion. It is carried into the hepatocyte by hepatic transporters including organic anion–transporting polypeptides (OATP)1B1 and OATP1B3, located at the sinusoidal membranes of hepatocytes. These transporters also carry unconjugated bili ...

[3] = patients with hyperbilirubinemia (N = 7)
[4] = patients without hyperbilirubinemia (N = 20)

Structure (SMILES): Cc1cnc(C(=O)N[C@H]2CCCCC/C=C\[C@@H]3C[C@@]3(C(=O)NS(=O)(=O)C3CC3)NC(=O)[C@@H]3C[C@@H](Oc4nc5ccccc5c5ccccc45)CN3C2=O)cn1 [paritaprevir]
- Log10 Ctrough [1, 3]: 2.768 ± 0.747 ng/ml
- AUC (AUC0-6 h) [1, 3]: 37224 ± 21015 ng·h/mL
- Log10 Ctrough [1, 4]: 2.169 ± 0.484 ng/ml
- AUC (AUC0-6 h) [1, 4]: 31441 ± 21727 ng·h/mL
- patients with elevation in total bilirubin (≥ 2.25 mg/dl) [2]: 23%
